Like-named read-outs stand apart in the source and are kept apart here.
Experiments:
HIV-IIIb = experiment: Antiviral assay in MT-4 cells infected with HIV-IIIb; type: cell-based; conditions: MT4, 120 h, read-out: EC50 Range MT-4
How it was run: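 MT-4 cells mixed with HIV-IIIb at m.o.i. 0.1 and added at once to 5-fold serial compound dilutions (7 concentrations, triplicate) in medium with 10% FBS. After 5 days at 37° C, cell viability read by CellTiter-Glo chemiluminescence.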

HIV integrase = HIV integrase (Human immunodeficiency virus type 1 group M subtype B, UniProt P04585); experiment: biochemical

SMILES	EC50 (HIV-IIIb; MT-4 cells, HIV-IIIb, 5 days)	IC50 (HIV integrase)	EC50 (HIV-IIIb)
CN(c1c2c(c(O)c3ncccc13)C(=O)N(Cc1cc(Cl)ccc1F)C2)S(C)(=O)=O [Compound 211, N-(7-(5-chloro-2-fluorobenzyl)-9-hydroxy-8-oxo-7,8-dihydro-6H-pyrrolo[3,4-g]quinolin-5-yl)-N-methylmethanesulfonamide]	< 60 nM	60 to 1000 nM	
O=C1c2c(c(N3CCNS3(=O)=O)c3cccnc3c2O)CN1Cc1ccc(F)cc1 [Compound 214]	< 60 nM	< 60 nM	
O=C1c2c(c(N3CCCNS3(=O)=O)c3cccnc3c2O)CN1Cc1ccc(F)cc1 [Compound 215]	< 60 nM	60 to 1000 nM	
CN1CCCN(c2c3c(c(O)c4ncccc24)C(=O)N(Cc2ccc(F)cc2)C3)S1(=O)=O [Compound 218]	< 60 nM	< 60 nM	
O=C1c2c(c(N3CCNC3=O)c3cccnc3c2O)CN1Cc1ccc(F)cc1 [Compound 221, 7-(4-fluorobenzyl)-9-hydroxy-5-(2-oxoimidazolidin-1-yl)-6,7-dihydropyrrolo[3,4-g]quinolin-8-one]	< 60 nM	< 60 nM	
O=C1c2c(c(N3CCCNC3=O)c3cccnc3c2O)CN1Cc1ccc(F)cc1 [Compound 222, 7-(4-fluorobenzyl)-9-hydroxy-5-(2-oxo-tetrahydropyrimidin-1(2H)-yl)-6,7-dihydropyrrolo[3,4-g]quinolin-8-one]	< 60 nM	60 to 1000 nM	
CN1CCCN(c2c3c(c(O)c4ncccc24)C(=O)N(Cc2ccc(F)cc2)C3)C1=O [Compound 224, 7-(4-fluorobenzyl)-9-hydroxy-5-(3-methyl-2-oxo-tetrahydropyrimidin-1(2H)-yl)-6,7-dihydropyrrolo[3,4-g]quinolin-8-one]		< 60 nM	60 to 1000 nM
O=C1c2c(c(N3C(=O)CCC3=O)c3cccnc3c2O)CN1Cc1ccc(F)cc1 [Compound 226, 1-(7-(4-fluorobenzyl)-9-hydroxy-8-oxo-7,8-dihydro-6H-pyrrolo[3,4-g]quinolin-5-yl)pyrrolidine-2,5-dione]	< 60 nM	< 60 nM	
